In US7045537B1, “Protein structures and protein fibres” (The University of Sussex, priority 1999, dated 2006):
Residues, ends and D or L forms follow the SMILES beside them.

What was measured:
Format in all cases: physicochemical
[1] = Solubility remarks in peptide design table; conditions: individual peptide
Description: Various peptide monomer units were designed as described above. The monomers and capping peptides (designed to complement the sticky ends of the monomers so as to produce flush, or blunt ends and, so, arrest longitudinal fibre assembly) are set out in Table 1: […]

[2] = Electron microscopy (TEM/SEM) of peptide preparations; conditions: individual peptide
Experimental: To confirm fibre assembly, we used electron microscopy to visualize structures in the peptide preparations directly. For TEM experiments, peptide samples were incubated for 1 h at 5° C. in filtered 10 mM MOPS, pH 7. A drop of peptide solution was applied to a carbon-coated copper specimen grid (Agar Scientific Ltd, Stansted, UK), and dried with filter paper before negative staining with 0.5% aqueous uranyl acetate and then dried at 5° C. A “fresh” SAF peptide mixture was prepared by mixing preincubated solutions of the individual peptides at 200 μM directly on the specimen grid, before drying and negative staining as described. Grids were examined in a Hitachi 7100 TEM at 100 kV and digital images were acquired with a (800×1200 pixel) charge-coupled device camera (Digital Pixel Co. Ltd., Brighton, UK) and analyzed (Kinetic Imaging Ltd., Liverpool, UK).
For scanning electron microscopy (SEM) experiments, negatively-stained specimen grids were sputter-coated with gold and examined in a Leo Stereoscan 420 SEM at 20 kV and with a probe current of 10 pA.

[3] = Circular dichroism (CD) spectroscopy of peptides and peptide mixtures; conditions: individual peptide, 10 mM MOPS pH 7, 5° C.
Experimental: Peptide samples were incubated at 5° C. in 10 mM MOPS (3-(N-Morpholino)propanesulfonic acid), pH 7. Sample concentrations were determined from their UV absorbance at 280 nm (SAF-p1) and 214 nm (SAF-p2). After baseline correction, ellipticities in mdeg were converted to molar ellipticities (deg cm^2 dmol-res^−1) by normalizing for the concentration of peptide bonds. Data were recorded in a cell of 1 mm path length by integrating the signal for 5s (and 1s for the fresh 100 μM peptide mixture) every nm in the range 205–260 nm. CD measurements were made using a JASCO J-715 spectropolarimeter fitted with a Peltier temperature controller.
The CD data shown in FIG. 3 provides spectroscopic evidence for the formation of helical structures by the SAF peptides.
Consistent with our design, neither SAF-p1 nor SAF-p2 was highly structured in aqueous solution at pH 7 and 5° C. (FIG. 3). However, when mixed in equal proportions the circular dichroism (CD) spectrum changed and, moreover, was markedly different from the theoretical spectrum generated by averaging the spectra for the isolated peptides. In particular, the spectrum for the mixture had intense minima at 208 and 222 nm consistent with the formation of α-helical structure, but these features were not as pronounced in the spectra of the individual peptides. This was clear evidence that the two peptides interacted to form an α-helical structure as designed. Furthermore, and as expected for a multimerization event, the magnitude of these spectral changes depended on peptide concentration; a SAF mixture with 10 μM of each peptide, did show a weak signal indicative of some α-helical structure, however, a 100 μM mixture gave a much stronger signal (FIGS. 3A&B).
The shape and intensity of spectra from 100 μM mixtures of the SAF peptides also changed with time (FIG. 3B). […] After incubation of the mixture for 1 hour at 5° C. (“maturation”), however, the signal at 222 nm was more intense, and indicated approximately 75% α-helix, consistent with substantial coiled-coil formation.

[4] = Linear dichroism (LD) spectroscopy under shear flow; conditions: for LD DATA @ 100 μM (signal): individual peptide
Experimental: Linear dichroism (LD) spectroscopy was also used to test if elongated structures were being formed as designed. Long polymers such as DNA molecules can be oriented by shear flow. This effect can be monitored by LD spectroscopy provided that chromophores also become aligned by the flow (M. Bloemendal (1994) Chem. Soc. Rev. 23, 265; A. Rodger and B. Norden (1997) Oxford Chemistry Masters (Oxford University Press, Oxford), vol. 1).
Peptide samples were prepared for LD as for CD. LD data were collected on samples spinning in a couette flow cell by integrating the signal for 2 s every nm in the range […], using a JASCO J-715 spectropolarimeter. After baseline correction, absorbance was converted to molar extinction coefficient (1 mol-res^−1 cm^−1) by normalizing for the concentration of peptide bonds. A linear correction for a sloping baseline was made to the data from the 100 μM SAF peptide mixture.

EM DATA @ 100 μM (fibres) [2] | CD DATA @ 10 μM (α-helix) [3] | CD DATA @ 100 μM (α-helix) [3] [%] | LD DATA @ 100 μM (signal) [4] | Compound | DESIGN remark on solubility / precipitation [1] | LD signal ([4]; 20 μM)
no | unfolded | ~45 | – | CC[C@H](C)[C@H](NC(=O)[C@H](CCCCN)NC(=O)[C@H](CCC(N)=O)NC(=O)[C@H](CCCCN)NC(=O)[C@H](CC(C)C)NC(=O)[C@H](C)NC(=O)[C@H](C)NC(=O)[C@@H](NC(=O)[C@@H](N)CCCCN)[C@@H](C)CC)C(=O)N[C@@H](C)C(=O)N[C@@H](C)C(=O)N[C@@H](CC(C)C)C(=O)N[C@@H](CCCCN)C(=O)N[C@@H](CCC(N)=O)C(=O)N[C@@H](CCC(=O)O)C(=O)N[C@H](C(=O)N[C@@H](CC(=O)O)C(=O)N[C@@H](C)C(=O)N[C@@H](CC(C)C)C(=O)N[C@@H](CCC(=O)O)C(=O)N[C@@H](Cc1ccc(O)cc1)C(=O)N[C@@H](CCC(=O)O)C(=O)N[C@@H](CC(N)=O)C(=O)N[C@@H](CC(=O)O)C(=O)N[C@@H](C)C(=O)N[C@@H](CC(C)C)C(=O)N[C@@H](CCC(=O)O)C(=O)N[C@@H](CCC(N)=O)C(=O)O)[C@@H](C)CC [SAF-p1A] (H-KIAALKQKIAALKQEIDALEYENDALEQ-OH) | precipitates | –
– | ~60% | ~70 | – | CC[C@H](C)[C@H](NC(=O)[C@H](CCCCN)NC(C)=O)C(=O)N[C@@H](C)C(=O)N[C@@H](C)C(=O)N[C@@H](CC(C)C)C(=O)N[C@@H](CCCCN)C(=O)N[C@@H](CCC(N)=O)C(=O)N[C@@H](CCCCN)C(=O)N[C@H](C(=O)N[C@@H](C)C(=O)N[C@@H](C)C(=O)N[C@@H](CC(C)C)C(=O)N[C@@H](CCCCN)C(=O)N[C@@H](CCC(N)=O)C(=O)N[C@@H](CCC(=O)O)C(=O)N[C@H](C(=O)N[C@@H](CC(=O)O)C(=O)N[C@@H](C)C(=O)N[C@@H](CC(C)C)C(=O)N[C@@H](CCC(=O)O)C(=O)N[C@@H](Cc1ccc(O)cc1)C(=O)N[C@@H](CCC(=O)O)C(=O)N[C@@H](CC(N)=O)C(=O)N[C@@H](CC(=O)O)C(=O)N[C@@H](C)C(=O)N[C@@H](CC(C)C)C(=O)N[C@@H](CCC(=O)O)C(=O)N[C@@H](CCC(N)=O)C(N)=O)[C@@H](C)CC)[C@@H](C)CC [SAF-p1B, *K IAALKQK IAALKQE IDALEYE NDALEQ*] (Ac-KIAALKQKIAALKQEIDALEYENDALEQ-NH2) | – | –
no | unfolded | ~20 | no | CC[C@H](C)[C@H](NC(=O)[C@H](CCCCN)NC(=O)[C@H](CCC(N)=O)NC(=O)[C@H](CCCCN)NC(=O)[C@H](CC(C)C)NC(=O)[C@H](C)NC(=O)[C@H](C)NC(=O)[C@@H](NC(=O)[C@@H](N)CCCCN)[C@@H](C)CC)C(=O)N[C@@H](C)C(=O)N[C@@H](CO)C(=O)N[C@@H](CC(C)C)C(=O)N[C@@H](CCCCN)C(=O)N[C@@H](CCC(N)=O)C(=O)N[C@@H](CCC(=O)O)C(=O)N[C@H](C(=O)N[C@@H](CC(=O)O)C(=O)N[C@@H](C)C(=O)N[C@@H](CC(C)C)C(=O)N[C@@H](CCC(=O)O)C(=O)N[C@@H](Cc1ccc(O)cc1)C(=O)N[C@@H](CCC(=O)O)C(=O)N[C@@H](CC(N)=O)C(=O)N[C@@H](CC(=O)O)C(=O)N[C@@H](C)C(=O)N[C@@H](CC(C)C)C(=O)N[C@@H](CCC(=O)O)C(=O)N[C@@H](CCC(N)=O)C(=O)O)[C@@H](C)CC [SAF-p1C] (H-KIAALKQKIASLKQEIDALEYENDALEQ-OH) | – | –
– | ~60% | ~95 | – | CC[C@H](C)[C@H](NC(=O)[C@H](CCC(=O)O)NC(=O)[C@H](CCC(N)=O)NC(=O)[C@H](CCC(=O)O)NC(=O)[C@H](CC(C)C)NC(=O)[C@H](C)NC(=O)[C@H](C)NC(=O)[C@@H](NC(=O)[C@H](CCC(=O)O)NC(=O)[C@H](CCC(N)=O)NC(=O)[C@H](CCCCN)NC(=O)[C@H](CC(C)C)NC(=O)[C@H](Cc1c[nH]cn1)NC(=O)[C@H](C)NC(=O)[C@H](CC(N)=O)NC(=O)[C@H](CCCCN)NC(=O)[C@H](Cc1c[nH]c2ccccc12)NC(=O)[C@H](CCCCN)NC(=O)[C@H](CC(C)C)NC(=O)[C@H](C)NC(=O)[C@H](CCCNC(=N)N)NC(=O)[C@@H](NC(=O)[C@H](CCCCN)NC(C)=O)[C@@H](C)CC)[C@@H](C)CC)C(=O)N[C@@H](C)C(=O)N[C@@H](C)C(=O)N[C@@H](CC(C)C)C(=O)N[C@@H](CCC(=O)O)C(=O)N[C@@H](CCC(N)=O)C(N)=O [SAF-p2B, *K IRALKWK NAHLKQE IAALEQE IAALEQ*] (Ac-KIRALKWKNAHLKQEIAALEQEIAALEQ-NH2) | – | –
thin | unfolded | ~20 | – | CC[C@H](C)[C@H](NC(=O)[C@H](CCC(=O)O)NC(=O)[C@H](CCC(N)=O)NC(=O)[C@H](CCC(=O)O)NC(=O)[C@H](CC(C)C)NC(=O)[C@H](C)NC(=O)[C@H](C)NC(=O)[C@@H](NC(=O)[C@H](CCC(=O)O)NC(=O)[C@H](CCC(N)=O)NC(=O)[C@H](CCCCN)NC(=O)[C@H](CC(C)C)NC(=O)[C@H](Cc1c[nH]cn1)NC(=O)[C@H](C)NC(=O)[C@H](CC(N)=O)NC(=O)[C@H](CCCCN)NC(=O)[C@H](Cc1c[nH]c2ccccc12)NC(=O)[C@H](CCCCN)NC(=O)[C@H](CC(C)C)NC(=O)[C@H](C)NC(=O)[C@H](CCCNC(=N)N)NC(=O)[C@@H](NC(=O)[C@@H](N)CCCCN)[C@@H](C)CC)[C@@H](C)CC)C(=O)N[C@@H](C)C(=O)N[C@@H](C)C(=O)N[C@@H](CC(C)C)C(=O)N[C@@H](CCC(=O)O)C(=O)N[C@@H](CCC(N)=O)C(=O)O [SAF-p2C] (H-KIRALKWKNAHLKQEIAALEQEIAALEQ-OH) | – | –
no | ~15% | ~45 | no | CC[C@H](C)[C@H](NC(=O)[C@H](CCC(=O)O)NC(=O)[C@H](CCC(N)=O)NC(=O)[C@H](CCC(=O)O)NC(=O)[C@H](CC(C)C)NC(=O)[C@H](C)NC(=O)[C@H](C)NC(=O)[C@@H](NC(=O)[C@H](CCC(=O)O)NC(=O)[C@H](CCC(N)=O)NC(=O)[C@H](CCCCN)NC(=O)[C@H](CC(C)C)NC(=O)[C@H](Cc1c[nH]cn1)NC(=O)[C@H](C)NC(=O)[C@H](CC(N)=O)NC(=O)[C@H](CCCCN)NC(=O)[C@H](C)NC(=O)[C@H](CCCCN)NC(=O)[C@H](CC(C)C)NC(=O)[C@H](C)NC(=O)[C@H](CCCNC(=N)N)NC(=O)[C@@H](NC(=O)[C@@H](N)CCCCN)[C@@H](C)CC)[C@@H](C)CC)C(=O)N[C@@H](C)C(=O)N[C@@H](C)C(=O)N[C@@H](CC(C)C)C(=O)N[C@@H](CCC(=O)O)C(=O)N[C@@H](CCC(N)=O)C(=O)O [SAF-p2D] (H-KIRALKAKNAHLKQEIAALEQEIAALEQ-OH) | – | –
– | – | – | – | tropomyosin [reference compound] | – | could be aligned to give a LD signal

Compound | EM DATA @ 100 μM (fibres) [2] | CD DATA @ 10 μM (α-helix) [3] | CD DATA @ 100 μM (α-helix) [3] [%] | LD DATA @ 100 μM (signal) [4] | DESIGN remark on solubility / precipitation [1] | LD signal ([4]; 20 μM)
K ISALKNK NASLKQE IAALEQE IAALEQ (KISALKNKNASLKQEIAALEQEIAALEQ) [SAF-p2A] | – | unfolded | – | – | low solubility | –
